Patent US8802597B2, “Herbicidal pyrimidines” (E I du Pont de Nemours and Company, priority 2003, dated 2014)

Legend:
Type in all cases: in vivo
[1] = test system: Surinam grass (Brachiaria decumbens); assay: Test B pre/postemergence; details: for Surinam Grass plant response rating: scale 0 to 100 (0 no effect, 100 complete control)
In short: (§1)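 Formulation: non-phytotoxic solvent blend with surfactant. Timing: preemergence on seeds, postemergence at 1- to 4-leaf (2–18 cm). Assessment: visual, 0–100 against controls, after 13–15 days' greenhouse growth.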

[2] = test system: barnyardgrass (Echinochloa crus-galli); assay: Test B pre/postemergence; details: for Barnyardgrass plant response rating: scale 0 to 100 (0 no effect, 100 complete control)
In short: as §1

[3] = test system: cocklebur (Xanthium strumarium); assay: Test B pre/postemergence; details: for Cocklebur plant response rating: scale 0 to 100 (0 no effect, 100 complete control)
In short: as §1

corn (Zea mays) = assay: Test B pre/postemergence; details: for Corn plant response rating: scale 0 to 100 (0 no effect, 100 complete control)
In short: as §1

[4] = test system: crabgrass (Digitaria sanguinalis); assay: Test B pre/postemergence; details: for Crabgrass plant response rating: scale 0 to 100 (0 no effect, 100 complete control)
In short: as §1

[5] = test system: giant foxtail (Setaria faberii); assay: Test B pre/postemergence; details: for Foxtail, Giant plant response rating: scale 0 to 100 (0 no effect, 100 complete control)
In short: as §1

[6] = test system: lambsquarters (Chenopodium album); assay: Test B pre/postemergence; details: for Lambsquarters plant response rating: scale 0 to 100 (0 no effect, 100 complete control)
In short: as §1

[7] = test system: morningglory (Ipomoea coccinea); assay: Test B pre/postemergence; details: for Morningglory plant response rating: scale 0 to 100 (0 no effect, 100 complete control)
In short: as §1

[8] = test system: pigweed (Amaranthus retroflexus); assay: Test B pre/postemergence; details: for Pigweed plant response rating: scale 0 to 100 (0 no effect, 100 complete control)
In short: as §1

[9] = test system: velvetleaf (Abutilon theophrasti); assay: Test B pre/postemergence; details: for Velvetleaf plant response rating: scale 0 to 100 (0 no effect, 100 complete control)
In short: as §1

[10] = test system: wheat (Triticum aestivum); assay: Test B pre/postemergence; details: for Wheat plant response rating: scale 0 to 100 (0 no effect, 100 complete control)
In short: as §1

[11] = test system: blackgrass (Alopecurus myosuroides); assay: Test B postemergence
In short: as §1

wild oat (Avena fatua) = assay: Test B postemergence
In short: as §1

[12] = test system: barnyardgrass (Echinochloa crus-galli); assay: Test B flooded paddy test; details: Flood, 1000 g ai/ha; scale 0 (no effect) to 100 (complete control)
In short: (§2)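 Visual injury scoring (0 = no effect, 100 = complete control) versus controls made 13 to 15 days after treatment in the greenhouse. Test species were grown in flooded paddy to the 2-leaf stage: rice, barnyardgrass, umbrella sedge, duck salad.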

[13] = test system: duck salad (Heteranthera limosa); assay: Test B flooded paddy test; details: Flood, 1000 g ai/ha; scale 0 to 100
In short: as §2

rice (Oryza sativa) = assay: Test B flooded paddy test; details: Flood, 1000 g ai/ha; scale 0 to 100
In short: as §2

[14] = test system: umbrella sedge (Cyperus difformis); assay: Test B flooded paddy test; details: Flood, 1000 g ai/ha; scale 0 to 100
In short: as §2

[15] = Postemergence, 500 g ai/ha, scale 0 to 100
[16] = Preemergence, 62 g ai/ha, scale 0 to 100, 0 no effect, 100 complete control
[17] = 62 g ai/ha, scale 0 to 100 (0 no effect, 100 complete control)

CCOC(=O)C(Cl)c1nc(C2CC2)nc(N)c1Br (stereo not shown) [Compound 31]
Surinam Grass plant response rating ([1]; Postemergence, 62 g ai/ha): 0 | Plant response rating, Surinam Grass [1, 15]: 0 | Plant response rating, Surinam Grass [1, 16]: 20 | Surinam Grass plant response rating ([1]; Preemergence, 500 g ai/ha): 60 | Barnyardgrass plant response rating ([2]; Postemergence, 62 g ai/ha): 0 | Plant response rating, Barnyardgrass [2, 15]: 0 | Plant response rating, Barnyardgrass [2, 16]: 20 | Barnyardgrass plant response rating ([2]; Preemergence, 500 g ai/ha): 70 | Cocklebur plant response rating ([3]; Postemergence, 62 g ai/ha): 70 | Plant response rating, Cocklebur [3, 15]: 80 | Plant response rating, Cocklebur [3, 16]: 90 | Cocklebur plant response rating ([3]; Preemergence, 500 g ai/ha): 100 | Corn plant response rating (corn (Zea mays); Postemergence, 62 g ai/ha): 0 | Plant response rating, Corn (corn (Zea mays); [15]): 0 | Plant response rating, Corn (corn (Zea mays); [16]): 0 | Corn plant response rating (corn (Zea mays); Preemergence, 500 g ai/ha): 40 | Crabgrass plant response rating ([4]; Postemergence, 62 g ai/ha): 0 | Plant response rating, Crabgrass [4, 15]: 30 | Plant response rating, Crabgrass [4, 16]: 10 | Crabgrass plant response rating ([4]; Preemergence, 500 g ai/ha): 80 | Foxtail, Giant plant response rating ([5]; Postemergence, 62 g ai/ha): 0 | Plant response rating, Foxtail, Giant [5, 15]: 0 | Plant response rating, Foxtail, Giant [5, 16]: 10 | Foxtail, Giant plant response rating ([5]; Preemergence, 500 g ai/ha): 80 | Lambsquarters plant response rating ([6]; Postemergence, 62 g ai/ha): 40 | Plant response rating, Lambsquarters [6, 15]: 70 | Plant response rating, Lambsquarters [6, 16]: 90 | Lambsquarters plant response rating ([6]; Preemergence, 500 g ai/ha): 100 | Morningglory plant response rating ([7]; Postemergence, 62 g ai/ha): 50 | Plant response rating, Morningglory [7, 15]: 70 | Plant response rating, Morningglory [7, 16]: 90 | Morningglory plant response rating ([7]; Preemergence, 500 g ai/ha): 100 | Pigweed plant response rating ([8]; Postemergence, 62 g ai/ha): 20 | Plant response rating, Pigweed [8, 15]: 50 | Plant response rating, Pigweed [8, 16]: 90 | Pigweed plant response rating ([8]; Preemergence, 500 g ai/ha): 100 | Velvetleaf plant response rating ([9]; Postemergence, 62 g ai/ha): 10 | Plant response rating, Velvetleaf [9, 15]: 60 | Plant response rating, Velvetleaf [9, 16]: 80 | Velvetleaf plant response rating ([9]; Preemergence, 500 g ai/ha): 90 | Wheat plant response rating ([10]; Postemergence, 62 g ai/ha): 0 | Plant response rating, Wheat [10, 15]: 0 | Plant response rating, Wheat [10, 16]: 40 | Wheat plant response rating ([10]; Preemergence, 500 g ai/ha): 70 | Blackgrass plant response rating [11, 17]: 0 | Plant response rating, Blackgrass ([11]; 500 g ai/ha, scale 0 to 100): 0 | Oat, Wild plant response rating (wild oat (Avena fatua); [17]): 0 | Plant response rating, Oat, Wild (wild oat (Avena fatua); 500 g ai/ha, scale 0 to 100): 0 | Plant response rating, Barnyardgrass [12]: 30 | Plant response rating, Ducksalad [13]: 60 | Plant response rating, Rice (rice (Oryza sativa)): 20 | Plant response rating, Sedge, Umbrella [14]: 0
